# Data from patent US20230414786A1, “PERFUSION-GUIDED GENE THERAPY FOR IMPROVING CANCER TREATMENT” (priority 2022, published 2023).
# Tests used:
# [1] = cited from earlier work
# iNOS = assay: ELISA of protein extracts from transfected NGP cells (iNOS expression); assay type: cell-based, H. sapiens; conditions: NGP cell protein extracts, n=3
# [2] = tested on: iNOS expression in tumor endothelium of NGP tumors; assay: iNOS immunohistochemistry in tumor endothelium (lectin-positive area) 72 h after sonopermeation transfection; assay type: in vivo, nude athymic mice; conditions: 72 h after transfection
# Excerpt: (§1) Orthotopic NGP Tumor Model and Implantation. NGP cells were MYC-N amplified, and thus function as an appropriate model for poor prognosis NB. They reproduce many features of clinical NB, such as histology, frequency, and location of metastatic lesions when renally implanted, as was done in nude athymic mice (Charles River, Wilmington, Mass.) to generate tumor models for this study. Mice were firstly anesthetized with inhalable isoflurane. After being positioned in a sterile environment, the entire right side of each mouse was cleaned with ethanol and painted with Betadine. A 3-5 mm diagonal incision was made with a scalpel blade toward the ribcage atop the kidney. The underlying fascia was cut with scissors to expose the right kidney. A 27-gauge needle (of length 1.3 cm, BD Biosciences) fitted to a syringe containing 20 μL of cell suspension (1×10^6 NGP cells in Phosphate Buffered Saline, Leibniz Institute DSMZ-GmbH, Braunschweig, Germany) was inserted into the kidney and its contents injected slowly. The kidney was then returned to the abdominal cavity. […] Mice were monitored daily to confirm complete recovery, and tumors were allowed to grow for 4-5 weeks (1-2-g weight) before ultrasound experiments were initiated. […]
# Quantitative Ex Vivo Imaging. […] The images were then analyzed in ImageJ (NIH, USA), selecting the lectin-positive area of the picture taken to create the area to be quantified. […]
# [3] = tested on: iNOS expression in adjacent glomeruli; assay: iNOS immunohistochemistry in adjacent kidney glomeruli after sonopermeation transfection; assay type: in vivo, nude athymic mice; conditions: p>0.05
# Excerpt: Quantitative Ex Vivo Imaging. For iNOS expression colocalization studies, sections were imaged on a Marianas Confocal (Zeiss) using a 40X oil objective, capturing 14 steps of 0.33 μm on the z-axis, with a resolution of 0.33 μm per pixel. At least five images of each tumor of were taken, with four tumors per group. To avoid bias, the endothelial marker Isolectin-B4 was used to determine image capture and focus and iNOS staining was captured at equal exposure times for all tissues. The images were then analyzed in ImageJ (NIH, USA), selecting the lectin-positive area of the picture taken to create the area to be quantified. This area was then used to quantify the mean intensity of the iNOS staining within the tumor endothelium. The mean iNOS intensity within each tumor endothelium z-stack was then averaged to obtain the mean iNOS intensity of each tumor blood vessel analyzed. Averages were then obtained for each tumor. Because tumor cells were injected directly into the kidney and often coopt glomeruli and tubules (PMID: 24066611), NOS expression was quantified in the adjacent kidney in a separate analysis, following the same method as tumor iNOS quantification. Quantification of pimonidazole and Isolectin was performed using the average intensities from the respective stains comparing the iNOS treated and Sham groups using FIJI (NIH). […]
# orthotopic NGP tumor [4] = assay: Quantitative contrast-enhanced ultrasound (qCEUS) imaging of tumor perfusion volume and reperfusion rate; assay type: in vivo, nude athymic mice
# Excerpt: as §1, with “kidney.” for “kidney. A 27-gauge needle (of length 1.3 cm, BD Biosciences) fitted to a syringe containing 20 μL of cell suspension (1×10^6 NGP cells in Phosphate Buffered Saline, Leibniz Institute DSMZ-GmbH, Braunschweig, Germany) was inserted into the kidney and its contents injected slowly. The kidney was then returned to the abdominal cavity.”
# 3D Volume and 2D Perfusion Imaging. […] Data were collected and subsequently analyzed using custom LabVIEW software, where tumor boundaries were manually segmented. […] As described in Wei K, et al., Quantification of Myocardial Blood Flow With Ultrasound-Induced Destruction of Microbubbles Administered as a Constant Venous Infusion, Circulation, 1998; 97: 473-83, MB perfusion conforms to the equation y=A (1−e^βt), where A is the relative blood volume (RBV) and β is the rate of reperfusion. […]
# orthotopic NGP tumor [5] = assay: Immunohistochemical analysis of tumor vascularity and hypoxia (Isolectin-B4, aSMA, pimonidazole) 72 h after transfection; assay type: in vivo, nude athymic mice; design: unit not given here
# Procedure: Tumoral Hypoxia Measurements. 60 mg/kg pimonidazole-HCl (Hypoxyprobe, Massachusetts) was injected intraperitoneally 30 min before sacrifice, and tissues were harvested and processed as described above.
# Immunohistochemistry. Excised NGP tumors were embedded in Tissue-Tek® optimum cutting temperature (O.C.T.) compound (Electron Microscopy Services), then stored at −20 ° C. until cryosectioned (Leica CM1860). 15 μm thick cryosections were fixed with acetone and permeabilized with Tween 20. […]
# Quantitative Ex Vivo Imaging. […] The images were then analyzed in ImageJ (NIH, USA), selecting the lectin-positive area of the picture taken to create the area to be quantified. This area was then used to quantify the mean intensity of the iNOS staining within the tumor endothelium. The mean iNOS intensity within each tumor endothelium z-stack was then averaged to obtain the mean iNOS intensity of each tumor blood vessel analyzed. […] Because tumor cells were injected directly into the kidney and often coopt glomeruli and tubules (PMID: 24066611), NOS expression was quantified in the adjacent kidney in a separate analysis, following the same method as tumor iNOS quantification. Quantification of pimonidazole and Isolectin was performed using the average intensities from the respective stains comparing the iNOS treated and Sham groups using FIJI (NIH). […]
# orthotopic NGP tumor [6] = assay: Animal survival study (days for tumors to increase by 50% above starting volume, up to 14 days); assay type: in vivo, nude athymic mice; conditions: plasmid transfection followed by L-DOX with sonopermeation; study endpoint 14 days
# Procedure: Animal Survival Studies. Survival in vivo experiments were performed as detailed above. Briefly, mature tumors were primed with gene therapy (either mKate or iNOS), transfected by sonopermeation with 1×10^9 cationic polydispersed MBs having median diameter ˜2 μm. 72 h following gene therapy treatment, sonopermeation was performed using net-neutral lipid MBs to deliver liposomal doxorubicin as described above. For this experiment, due to the volume of bubbles needed, size-isolated microbubbles (SIMBs) were obtained from Advanced Microbubbles Inc to perform imaging and sonopermeation. Tumors were measured every other day until they reached the endpoint criteria up to 14 days using calipers, and re-imaged with a bolus of 1×10^7 SIMBs on Day 7 as well as re-dosed with L-DOX in conjunction with sonopermeation. Normalized tumor growth over the two-week observation period was obtained by dividing the volume on any given day by initial tumor volume. Kaplan-Meier curves were generated to plot the number of days it took for tumors to increase by 50% above their starting volume up to 14 days. Survival curves were plotted, and statistical analyses were conducted in Graphpad (Prism 6). Statistical significance between groups represents Mantel-Cox test, with p<0.05 interpreted as significant.
Molecule,half-life in vivo ([1]; in vivo) [s],half-life in whole blood ([1]; whole blood) [s],iNOS protein by ELISA (iNOS) [units],iNOS in tumor endothelial cells compared with untreated tumors [2],iNOS mean intensity within lectin-positive area ([2]; n=4 per group),iNOS expression in adjacent glomeruli [3],"change in RBV (normalized to tumor volume, vascularity) from baseline (orthotopic NGP tumor [4]; 3 days post-transfection) [%]",rate of MB reperfusion (RR) normalized to TV (orthotopic NGP tumor [4]; day 3 after transfection) [%],distance between aSMA pericytes and endothelium (orthotopic NGP tumor [5]),median survival time (time to 50% tumor growth) (orthotopic NGP tumor [6]) [days]
"[N]=O [NO, Nitric oxide]",< 0.002,0.0018,,,,,,,,
Sham,,,0.04,no change in iNOS,"8,814±2,952",remains unchanged,68±7,77±8,5.8±1.1,9
